The values that follow come from patent US7591995B2, “Cobalamin conjugates useful as imaging and therapeutic agents” (Mayo Foundation for Medical Education and Research, priority 1999, dated 2009).

The test system of data set [1] is unsaturated B12 binding capacity (UBBC). The settings on record: relative to cyanocobalamin; J. Nucl. Med. 38, 717-723 (1997), US 5,739,313; cited from earlier work.
Data set [2] has the same test system. The settings on record: relative to cyanocobalamin.
Data set [3] in a line: Specific activity of radiolabeled cobalamin DTPA conjugates. Particulars: poly-DTPA complex, increased versus mono-DTPA compounds.

Take cyanocobalamin-DTPA: the “in vitro biological activity (UBBC), comparison to cyanocobalamin” value in data set [1] is reported as 66.4%.
Regarding cyanocobalamin-poly-L-lysine, the “in vitro biological activity (UBBC) when compared to cyanocobalamin” value in data set [2] is recorded as 92%.
On to cyanocobalamin-poly-L-lysine-polyDTPA, for which, in data set [3], the specific activity turned out to be 4.5 mCi. Also, the “in vitro biological activity (UBBC) when compared to cyanocobalamin” value in data set [2] is 43.4%.
